Experimental data: patent US5561131A, “Defaunation method” (Mallinckrodt Veterinary, Inc., priority 1991, dated 1996)

What was measured:
[1] = Wool growth in defaunated sheep; type: in vivo; settings: 167 mg/kg; for Response To Defaun: clean wool growth defaunated vs refaunated
Method: Seven sheep each were defaunated using a dose rate of 167 mg/kg. Compounds were administered by first mixing with 20 ml of ethanol and then with 200 ml of centrifuged rumen liquor. This solution was then administered via a flexible stomach tube directly into the rumen. The sheep were fed with a ration of 90% oaten chaff and 10% Lucerne chaff at a rate of 1000 g per day. The sheep were maintained in a defaunated state by their isolation from faunated sheep to prevent the possibility of refaunation. The sheep were allowed to adjust for 3 weeks after administering the compound before any wool growth measurements were taken.
At the start of the wool growth measurement period, a 10 cm square area of wool was removed from both sides of the sheep. After four weeks the same area was reclipped and the wool retained for scouring at the end of the trial.
The sheep then had protozoa introduced back into their rumen and were allowed to adjust for three weeks. Similarly, during the second four week period, the wool was clipped from the same patch area. The wool harvested during the two four week trial periods was then scoured of wool wax and extraneous material and weighed.

[2] = tested on: rumen bacteria; assay: In vitro bacterial gas inhibition; type: cell-based; settings: at the concentration known to kill protozoa
Method: Compounds of Table 1 were also tested for toxicity bacteria. This involved removing protozoa from rumen liquor by centrifugation at 2,000 g for 5 minutes and collecting the bacterial rich supernatant. Nitrogen and energy substrate was added to the bacterial preparation which was then dispensed in triplicate 10 ml volumes over the same range of compound concentrations (50, 150, 250 and 500 ppm.) referred to in Example 2. Control tubes were placed after every second compound to enable the inhibition of gas resulting from the compound to be assessed. […] It can be seen that these compounds are selective in their mode of action, in that they are more toxic to protozoa than bacteria.

[3] = tested on: rumen bacteria; assay: Sheep test: bacterial gas production; type: in vivo
Method: (§1) In this trial the effect of defaunation by compounds 27, 30 and 37 (see Table 1) after 1 and 3 weeks were examined using penned sheep.
(§2) The compounds were each administered to two sheep as a single dose at 167 mg/kg body weight. Compositions containing each compound were prepared according to the method of Example 1. Sheep were penned and fed 1000 g/day of a chaffed oaten hay and Lucerne mixture (90/10). Protozoal and bacterial viabilities were monitored along with the feed intake of the sheep according to the methods taught in Examples 2, 3 and 7.

[4] = tested on: rumen ciliate protozoa; assay: Protozoal reduction in sheep; type: in vivo; set-up: concentration or dose not given beside the values; settings: one week after dosing, relative to predosing numbers
Method: Defaunation compositions were prepared according to the method of Example 1.
Prior to dosing of the compound, a sample of rumen liquor (200 ml) was withdrawn to establish basal numbers of protozoa.
The sample was collected using a stomach tube, inserted into the rumen via a rumen cannula (fistulated animals) or per esophagus (intact animals). After straining the sample was well mixed using a magnetic stirrer and a 0.5 ml sample was withdrawn and added to 49.5 ml of a crystal violet stain. Protozoa were counted using a microscope and a Hawksley counting chamber.
One week after administering the compound, another rumen liquor sample was collected (as described above) and examined for the presence of protozoa. Where rumen ciliate protozoa were undetectable, a reduction or inhibition value of 100% was recorded. In general, most compounds expressed a strong inhibitory effect on protozoal populations.

[5] = tested on: rumen bacteria; assay: Bacterial viability in sheep after administering defaunation compounds; type: in vivo; settings: gas production one week after dosing vs pre-dosing
Method: In order to establish what effect the compounds had on the viability of rumen bacteria, a sample of rumen liquor was collected prior to dosing of the compound. The sample was withdrawn under vacuum using a pre-warmed tube inserted into the rumen through a rumen cannula. The sample was collected in a pre-warmed (39° C.) flask, gassed with carbon dioxide and covered. Two-pre-warmed 30 ml centrifuge tubes were then filled with well mixed rumen liquor and centrifuged at 2000 rpm for 5 minutes. Half the volume of each tube was then poured into another pre-warmed tube without disturbing the sediment. Three lots of 10 ml of this rumen liquor were then pipetted into 15 ml tubes which contained 10 μL of urea solution (40% w/v and 300 μL of glucose solution (50% w/v). The urea and glucose acted as substrate for the bacteria. The tubes were then gassed with carbon dioxide, stoppered and placed in a water bath at 39° C. After 10 minutes a 5 ml glass syringe was secured into the stoppers (through which a hypodermic needle had been inserted) and the gas collected for five hours and recorded.
This bacterial viability measure was then repeated one week after dosing with each of the compounds referred to in Table 1. Defaunation compositions were prepared according to the method of Example 1. The amount of gas produced was then compared with the pre-dosing level. The criterion for classifying post-dosing bacterial viability is shown below:
Poor--reduction in post-dosing gas production relative to pre-dosing levels.
OK--post-dosing gas production the same as pre-dosing levels.
Good--increase in post-dosing gas production relative to pre-dosing levels.

[6] = Sheep test: feed intake; type: in vivo
Method: as §1, §2

[7] = Pilot field testing: adverse effects and grazing behavior; type: in vivo; settings: sheep, 167 mg/kg
Method: (§3) In this trial the effect of defaunation agents after 1 and 2 weeks was examined in sheep in pilot field studies.
(§4) Thirty mature fine wooled merino weather sheep consuming a forage diet were given a single dose of either compound 27 or 37. The dose rate was 167 mg/kg and each compound was dispersed in 20 mL of ethanol and 200 mL of centrifuged rumen liquor. The compounds were then administered into the rumen using a flexible stomach tube.

[8] = tested on: protozoa; assay: Pilot field testing: elimination of protozoal population in sheep; type: in vivo; settings: for Elimination of protozoa: one week after single dose of 167 mg/kg
Method: as §3, §4

[9] = tested on: rumen ciliate protozoa; assay: In vitro activity of defaunation compounds against rumen ciliate protozoa; type: cell-based; settings: 39° C., anaerobic, 3 hours, tested at 50, 150, 250 and 500 ppm
Method: Compounds of Table 1 were tested for their toxicity against rumen ciliate protozoa by firstly isolating protozoa from rumen liquor collected from faunated animals. The rumen liquor was then centrifuged at 500 g for five minutes and the supernatant discarded. The protozoal-rich sediment was then reconstituted in McDougal's artificial saliva. Residual bacteria were suppressed by using a combination of two antibiotics at low concentration. Nitrogen and energy substrate was optimized for the protozoal preparation. At all times the protozoal preparation was maintained at 39° C. and kept anaerobic.
Sixty milligrams of each the compounds of Table 1 were dissolved in 1.2 ml of dimethyl sulphoxide and dispersed in triplicate to achieve a final concentration of 50, 150, 250 and 500 ppm. Ten milliliters of protozoal preparation was then added to each tube. After every second compound, control tubes were included which contained everything except for compound. The tubes, to which a 5 ml glass syringe was attached, were then incubated for 3 hours in a water bath at 39° C. The production of gas causes the syringe plunger to be displaced.
At the end of the incubation period, the volume of gas produced was recorded and the viability of the protozoa assessed visually using a microscope. The toxicity of the compounds to protozoa was assessed from both the reduction in gas produced relative to the control and by direct observation of the protozoa for movement of cilia.

[10] = tested on: protozoa; assay: Sheep test: protozoal numbers; type: in vivo
Method: as §1, §2

SMILES | Response To Defaun ([1]; sheep) | Bact. Gas Inhibition at the conc. required to kill protozoa [2] | Bacterial gas production ([3]; 1 week after 167 mg/kg) [M1 per 5 hr] | Bacterial gas production ([3]; 3 weeks after 167 mg/kg) [M1 per 5 hr] | Bacterial gas production ([3]; pre-dose (baseline)) [M1 per 5 hr] | Protozoal Reduction [4] [%] | Bacterial Viability [5] | Feed Intake ([6]; 1 week after 167 mg/kg) [g/day] | Feed Intake ([6]; 3 weeks after 167 mg/kg) [g/day] | Feed Intake ([6]; pre-dose (baseline)) [g/day] | Adverse effects and grazing behavior [7] | Elimination of protozoa [8] | Protozoal number ([8]; week 0, 167 mg/kg) [per mL × 10^3] | Protozoal number ([8]; week 1, 167 mg/kg) [per mL × 10^3] | Protozoal number ([8]; week 2, 167 mg/kg) [per mL × 10^3] | Conc Required to Kill all Protozoa [9] [ppm] | Protozoal Nos. ([10]; 1 week after 167 mg/kg) [per mL × 10^3] | Protozoal Nos. ([10]; 3 weeks after 167 mg/kg) [per mL × 10^3] | Protozoal Nos. ([10]; pre-dose (baseline)) [per mL × 10^3] | other results
Cc1ccc(Nc2nc(Cl)nc(Cl)n2)cc1Cl [Compound 27, 2,4 dichloro-6-(3 chloro-4-methylanilino)-s-triazine] | 10.3 | 67 | 3.5 | 3.8 | 2.9 | 100 | Okay | 1000 | 1000 | 966 | no adverse effects and grazing behavior was normal | total elimination of protozoa in all sheep | 285 | 0 | 0 | 150 | 0 | 0 | 950 | Clean Wool Growth ([1]; sheep, defaunated period, 4 weeks, per midside patch): 1.753 g
Clc1nc(Cl)nc(Nc2ccccc2Cl)n1 [Compound 37, 2,4-dichloro-6-(2-chloroanilino)-1,3,5-triazine] | 8.9 | 57 | 1.9 | 3.4 | 1.8 | 100 | Okay | 930 | 820 | 1000 | no adverse effects and grazing behavior was normal | total elimination of protozoa in all sheep | 190 | 0 | 0 | 250 | 0 | 0 | 497 | Clean Wool Growth ([1]; 672 h): 1.773 g
